Source: US8710231B2, “Inhibitor of casein kinase 1delta and casein kinase 1E” (Pharmadesign, Inc., priority 2010, dated 2014)

Key:
[1] = Solubility of each compound in a DMSO solution; assay type: physicochemical
Excerpt: In terms of the solubility of each compound in a DMSO solution, a comparison was made among the compound represented by the Formula (2), the compounds represented by the formulae (11) and (14), and a compound in which a halogen atom or the like has not been introduced into the thiophene ring of the compound of the formula (2) (4-((6-methoxy-3-pyridinyl)methylene)-2-(2-thienyl)-5(4H)-oxazolone). The compound represented by the formula (2) and the compounds represented by the formulae (11) and (14) were easily dissolved in final concentrations of 35 mM, 10 mM and 20 mM, respectively, in the DMSO solution. On the other hand, the compound in which a halogen atom or the like has not been introduced into the thiophene ring of the compound of the formula (2) was dissolved in a final concentration of 10 mM in the DMSO solution by being intensively stirred.

rats [2] = experiment: Rat circadian rhythm disorder model (momentum and non-REM sleep under LD conditions); assay type: in vivo; settings: for momentum / non-REM sleep amount: 60 mg/kg intraperitoneal immediately before dark period, vs untreated rats
Description: Specifically, rats were acclimatized for one or more weeks under light/dark (LD) conditions consisting of a light period for 12 hours and a dark period for 12 hours. Immediately before the beginning of the dark period, the compound represented by the formula (11) was mixed with a solubilizing agent, and the mixture was intraperitoneally administered to each rat at a dose of 60 mg/kg. […] On the other hand, with regard to a compound in which as halogen group or the like had not been introduced into the thiophene ring of the compound represented by the formula (2) ((4-((6-methoxy-3-pyridinyl)methylene)-2-(2-thienyl)-5(4H)-oxazolone)), the same test as described above was carried out.

[3] = molecular target: T1, human recombinant casein kinase 1δ (Homo sapiens, UniProt P48730); experiment: Casein kinase 1δ inhibition, Z'-LYTE Ser/Thr 11 Peptide assay; assay type: biochemical; settings: 0.3 μg/ml compound; for inhibition at 0.3 µg/mL: 20 μM ATP, 3.0 or 1.0 μg/ml enzyme, formula (2) high-purity from Scheme 2, read-out: Casein kinase 1δ inhibition percentage
T1 construct: purchased INVITROGEN PV3665
Description: (§1) The activity of the present compound to inhibit casein kinase 1δ and casein kinase 1ε was measured using human recombinant casein kinase 1δ (INVITROGEN; Cat No. PV3665) or human recombinant casein kinase 1ε (INVITROGEN; Cat No. PV3500) as an enzyme source, and also using Z′-LYTE Ser/Thr 11 Peptide (INVITROGEN; Cat No. PV3671) as a phosphorylation substrate. The composition (final concentration) applied during each inhibitory activity measurement assay is as follows.
Assay for Casein Kinase 1δ
3.0 μg/ml or 1.0 μg/ml casein kinase 1δ, 0.3 μg/ml the present compound, 1.0 μM Peptide, 20 μM ATP, 50 mM HEPES (pH 7.4), 10 mM MgCl2, 0.01% Brij-35, and 0.5% DMSO
(§2) The present compound was previously allowed to react with the enzyme at room temperature, for 15 minutes. Two hours later, the remaining phosphorylation activity was measured using Z′-LYTE Kinase Assay Kit-Ser/Thr 11 Peptide (INVITROGEN; Cat No. PV3670).
(§3) The inhibition percentage of the present compound against the phosphotylation activity of each of casein kinase 1δ and casein kinase 1ε to which the present compound had not been added, was calculated.

[4] = molecular target: T2, human recombinant casein kinase 1ε (Homo sapiens, UniProt P49674); experiment: Casein kinase 1ε inhibition, Z'-LYTE Ser/Thr 11 Peptide assay; assay type: biochemical; settings: 0.3 μg/ml compound; for inhibition at 0.3 µg/mL: 20 μM ATP, 0.5 μg/ml enzyme, formula (2) high-purity from Scheme 2, read-out: Casein kinase1ε inhibition percentage
T2 construct: purchased INVITROGEN PV3500
Description: as §1
Assay for Casein Kinase 1ε
0.5 μg/ml casein kinase 1ε, 0.3 μg/ml the present compound, 1.0 μM Peptide, 20 μM ATP, 50 mM HEPES (pH 7.4), 10 mM MgCl2, 0.01% Brij-35, and 0.5% DMSO
as §2, §3

[5] = molecular target: Dual specificity tyrosine-phosphorylation-regulated kinase 1A (DYRK1A) (Homo sapiens, UniProt Q13627); experiment: DYRK1A inhibition, Profiler Pro kit method; assay type: biochemical; settings: compound 1 μM; read-out: DYRK1A enzyme activity inhibition percentage
Excerpt: As with casein kinase 1δ, this DYRK1A has been known as a candidate kinase for phosphorylating tau proteins, and also as a kinase for controlling circadian rhythm.

[6] = test system: various types of kinases (MAPKAPK2, AurA, PKCζ, RSK1, PRAK, Erk1, PKD2, CHK1, ABL, FYN, LYN, CHK2, MET, LCK, SRC, GSK3β, Erk2, PKA, AKT2, INSR, p38α, AKT1 …); experiment: Inhibitory specificity to various types of kinases, Profiler Pro kit; assay type: biochemical; settings: final concentration of 10 μM, 1 μM or 0.1 μM; reacted 15 minutes
Description: The inhibitory specificity of the casein kinase 1δ to and casein kinase 1ε inhibiting compounds to various types of kinases can be examined using Profiler Pro kit (manufactured by Caliper Life Sciences) in accordance with the method described in an instruction manual included therewith. The compounds represented by the formulae (2), (11) and (14) were each allowed to react with various types of kinases for 15 minutes, resulting in the final concentration of 10 μM, 1 μM or 0.1 μM. After completion of the reaction, enzyme activity was examined.

[7] = test system: human pancreatic cancer cell line; settings: added in vitro; cited from earlier work
[8] = test system: pancreatic cancer cell line transplanted into the subcutis of a mouse; settings: subcutaneous transplant; cited from earlier work
[9] = test system: N2A cells (N2A-APP695 cells); settings: N2A-APP695 cells excessively expressing constitutively active casein kinase 1ε; cited from earlier work
[10] = molecular target: T3, human recombinant casein kinase 1δ (substrate human recombinant tau) (Homo sapiens, UniProt P48730); experiment: Casein kinase 1δ inhibition with tau as substrate (Phos-tag Western blotting); assay type: biochemical; settings: compound 25 μM to 1 μM, 200 μM ATP, vs reaction solution without compound
T3 construct: purchased Carna Biosciences 03-103
Description: The activity of the present compound to inhibit casein kinase 1δ having tau as a substrate can be examined using human recombinant casein kinase 1δ (Carna Biosciences; Cat No. 03-103) as an enzyme source and also using human recombinant tau (Sigma-Aldrich; Cat No. T0576) as a phosphorylation substrate. The composition (final concentration) applied during the inhibitory activity measurement assay is as follows.
25 μg/ml casein kinase 1δ, 10 μg/ml tau, the present compound (25 μM to 1 μM), 200 μM ATP, 50 mM HEPES (pH7.4), 10 mM MgCl2, 0.01% Brij-35, 200 μM Na3VO4, and 0.25% DMSO
The present compound has previously been allowed to react with the enzyme at room temperature for 15 minutes, and tau is then added to the reaction product. Thereafter, a phosphorylation reaction is carried out for 2 hours. After completion of the phosphorylation reaction, the reaction solution is subjected to Western blotting, so that the phosphorylation of the human recombinant tau transcribed on a PVDF membrane is detected using Phos-tag (NARD Institute, Ltd.; Cat No. BTL-104) according to a chemiluminescence method (ECL Plus; GE Healthcare; Cat No. RPN2132). The PVDF membrane after detection of the phosphorylation reaction is deprobed in accordance with the protocols of the Phos-tag, and thereafter, a total tau protein content can be detected by an antibody reaction. […]

p38α = p38α (Homo sapiens, UniProt Q16539); settings: cited from earlier work
rats [11] = settings: subcutaneous administration; cited from earlier work
[12] = low-purity compound obtained by Scheme 1

T1 sequence (P48730 whole entry): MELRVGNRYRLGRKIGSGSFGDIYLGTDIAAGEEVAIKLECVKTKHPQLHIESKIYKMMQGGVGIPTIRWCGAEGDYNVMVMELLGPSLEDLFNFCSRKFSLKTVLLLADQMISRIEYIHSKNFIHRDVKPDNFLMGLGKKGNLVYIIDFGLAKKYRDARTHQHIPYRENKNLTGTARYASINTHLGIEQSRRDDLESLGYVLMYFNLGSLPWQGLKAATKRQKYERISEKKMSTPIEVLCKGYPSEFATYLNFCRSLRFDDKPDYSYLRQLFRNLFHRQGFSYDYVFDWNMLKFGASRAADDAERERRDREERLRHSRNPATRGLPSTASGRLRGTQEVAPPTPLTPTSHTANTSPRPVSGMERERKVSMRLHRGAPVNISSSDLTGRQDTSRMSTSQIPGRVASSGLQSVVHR
T2 sequence (P49674 whole entry): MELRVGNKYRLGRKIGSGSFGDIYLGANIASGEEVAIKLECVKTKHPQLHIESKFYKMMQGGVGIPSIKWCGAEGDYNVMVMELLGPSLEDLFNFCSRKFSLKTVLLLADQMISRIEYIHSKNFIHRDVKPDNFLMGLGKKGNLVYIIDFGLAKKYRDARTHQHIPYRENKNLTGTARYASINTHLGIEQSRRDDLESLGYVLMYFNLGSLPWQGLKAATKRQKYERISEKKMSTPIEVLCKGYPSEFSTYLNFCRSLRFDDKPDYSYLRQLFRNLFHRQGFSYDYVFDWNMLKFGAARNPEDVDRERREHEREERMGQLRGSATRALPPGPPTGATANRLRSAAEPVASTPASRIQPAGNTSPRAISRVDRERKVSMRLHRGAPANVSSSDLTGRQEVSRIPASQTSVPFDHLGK
T3 sequence (P48730 whole entry): as the sequence (P48730 whole entry) above
p38α, sequence (Q16539 whole entry): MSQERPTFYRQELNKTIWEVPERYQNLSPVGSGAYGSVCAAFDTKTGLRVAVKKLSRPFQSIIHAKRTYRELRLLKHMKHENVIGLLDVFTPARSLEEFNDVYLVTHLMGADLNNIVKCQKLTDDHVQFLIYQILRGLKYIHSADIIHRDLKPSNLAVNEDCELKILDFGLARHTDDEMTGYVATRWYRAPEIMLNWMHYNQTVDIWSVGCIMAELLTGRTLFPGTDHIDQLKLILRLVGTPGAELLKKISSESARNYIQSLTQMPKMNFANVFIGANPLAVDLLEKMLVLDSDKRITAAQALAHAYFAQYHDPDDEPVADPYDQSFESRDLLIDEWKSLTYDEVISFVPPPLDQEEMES

Row | SMILES | momentum (rats [2]) | non-REM sleep amount (rats [2]) | final concentration dissolved in the DMSO solution ([1]; easily dissolved) [mM] | inhibition at 0.3 µg/mL [3] [%] | inhibition at 0.3 µg/mL [4] [%] | inhibition at 1 µM [5] [%] | inhibitory activity against various types of kinases causing concerns about side effects [6] | inhibition of phosphorylation of tau by casein kinase 1δ (phosphorylation rate of tau) [10] | also measured
1 | COc1ccc(C=C2N=C(c3cccs3)OC2=O)cn1 [4-((6-methoxy-3-pyridinyl)methylene)-2-(2-thienyl)-5(4H)-oxazolone, reference compound] | significant reduction | increase |  |  |  |  |  |  | final concentration dissolved in the DMSO solution ([1]; dissolved by being intensively stirred): 10 mM
2 | COc1ccc(/C=C2\N=C(c3ccc(Br)s3)OC2=O)cn1 [Formula (14)] |  |  | 20 | 77.8 | 95 | 85 | did not have significant inhibitory activity |  | 
3 | COc1cc(OC)c(C=C2C(O)=Nc3ccccc32)c(OC)c1 [IC261] |  |  |  |  |  |  |  |  | cell growth [7]: suppression of the cell growth; growth of tumor cells [8]: significant effect of suppressing the growth of tumor cells; amounts of Aβ40 and Aβ42 [9]: decreased
4 | COc1ccc(/C=C2\N=C(c3ccc(F)s3)OC2=O)cn1 [Formula (2), 4-((6-Methoxy-3-pyridinyl)methylene)-2-(5-fluoro-2-thienyl)-5(4H)-oxazolone] |  |  | 35 | 83 | 97.7 | 65 | did not have significant inhibitory activity | significant inhibition | inhibitory activity against casein kinase 1δ [3, 12]: significant inhibitory activity; inhibitory activity against casein kinase 1ε [4, 12]: significant inhibitory activity
5 | COc1ccc(/C=C2\N=C(c3ccc(Cl)s3)OC2=O)cn1 [Formula (11), 4-((6-Methoxy-3-pyridinyl)methylene)-2-(5-chloro-2-thienyl)-5(4H)-oxazolone] | statistically significant reduction | increase | 10 | 77.9 | 94.8 | 78 | did not have significant inhibitory activity | significant inhibition | medicinal effect compared with the compound without halogen on the thiophene ring (rats [2]; same test): significantly higher
6 | Nc1nccc(-c2c(-c3ccc(F)cc3)ncn2C2CCCCC2)n1 [PF-670462, 4-[3-cyclohexyl-5-(4-fluoro-phenyl)-3H-imidazol-4-yl]-pyrimidin-2-ylamine] |  |  |  |  |  |  |  |  | inhibitory action against p38α (p38α): exhibit inhibitory action; phase of circadian rhythm (rats [11]): significantly delayed
